Measured values reported in PMC5681660, “Reduced hepatitis B and D viral entry using clinically applied drugs as novel inhibitors of the bile acid transporter NTCP” (Scientific Reports, 2017).
Counter-ions that a name gives are not always drawn.

Biological target: T1, human NTCP (Homo sapiens, UniProt Q14973)
T1 sequence (Q14973 1-349): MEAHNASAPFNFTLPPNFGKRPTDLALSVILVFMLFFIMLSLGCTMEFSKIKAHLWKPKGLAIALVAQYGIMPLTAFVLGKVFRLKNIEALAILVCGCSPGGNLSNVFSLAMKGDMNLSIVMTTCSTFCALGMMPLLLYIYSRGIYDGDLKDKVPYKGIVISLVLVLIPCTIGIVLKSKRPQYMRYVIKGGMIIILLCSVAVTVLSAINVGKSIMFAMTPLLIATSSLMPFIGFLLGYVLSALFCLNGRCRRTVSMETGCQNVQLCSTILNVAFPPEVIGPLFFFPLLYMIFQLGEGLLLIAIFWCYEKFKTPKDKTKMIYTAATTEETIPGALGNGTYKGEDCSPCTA
Assay: Screening taurocholate uptake assay (96-well, [14C]taurocholate, 10 µM drug)
Details: for B-score functional assay: screening taurocholate uptake, 10 µM drug

[1] = ranking over the functional and the binding screening assay
[2] = combined ranking of functional and binding screening assays

Molecule `Cc1c(NC(C)C)c(=O)n(-c2ccccc2)n1C.Cl` [Isopyrin hydrochloride] has a Ranking score [1] of 209.153 and a B-score functional assay of -3.076.

For `O=[N+]([O-])O[C@@H]1CO[C@H]2[C@@H]1OC[C@@H]2O` [Isosorbide mononitrate], the Ranking score [1] was 252.589 and the B-score functional assay was -0.263.

For `CC1=C(/C=C/C(C)=C/C=C/C(C)=C\C(=O)O)C(C)(C)CCC1` [Isotretinoin], the Ranking score [1] was 204.751 and the B-score functional assay was -0.503.

Work on `COC(=O)C1=C(C)NC(C)=C(C(=O)OC(C)C)C1c1cccc2nonc12` (stereo not shown) [Isradipine] yielded a Ranking score [1] of 185.591 and a B-score functional assay of -0.707.

`COc1ccc(C(=O)NCc2ccc(OCCN(C)C)cc2)cc1OC` [Itopride] was tested, and the Ranking score [2] was 560.029 and the B-score functional assay was -0.688.

Molecule `CC[C@H](C)[C@H]1O[C@]2(CC[C@@H]1C)C[C@@H]1C[C@@H](C/C=C(\C)[C@@H](O[C@H]3C[C@H](OC)[C@@H](O[C@H]4C[C@H](OC)[C@@H](O)[C@H](C)O4)[C@H](C)O3)[C@@H](C)/C=C/C=C3\CO[C@@H]4[C@H](O)C(C)=C[C@@H](C(=O)O1)[C@]34O)O2` [Ivermectin] has a Ranking score [1] of 56.4978 and a B-score functional assay of -2.693.

`Cl.OC1CCCCC1N1CCC(c2ccccc2)CC1` (stereo not drawn) [L(-)-vesamicol hydrochloride] showed a Ranking score [1] of 206.223 and a B-score functional assay of -0.315.

Molecule `CC(CCc1ccccc1)NCC(O)c1ccc(O)c(C(N)=O)c1` (stereo not shown) [Labetalol hydrochloride] has a Ranking score [2] of 596.712 and a B-score functional assay of 2.094.

Work on `CC(=O)O[C@H]1C[C@H](O[C@H]2[C@@H](O)C[C@H](O[C@H]3[C@@H](O)C[C@H](O[C@H]4CC[C@@]5(C)[C@H](CC[C@@H]6[C@@H]5C[C@@H](O)[C@]5(C)[C@@H](C7=CC(=O)OC7)CC[C@]65O)C4)O[C@@H]3C)O[C@@H]2C)O[C@H](C)[C@H]1O[C@@H]1O[C@H](CO)[C@@H](O)[C@H](O)[C@H]1O` [Lanatoside C] yielded a Ranking score [2] of 583.598 and a B-score functional assay of -0.511.

For `N#Cc1ccc(C(c2ccc(C#N)cc2)n2cncn2)cc1` [Letrozole], the Ranking score [2] was 610.1 and the B-score functional assay was 1.169.

In the case of `N[C@@H](Cc1ccc(O)c(O)c1)C(=O)O` [Levodopa], the Ranking score [1] is reported as 265.141 and the B-score functional assay is reported as 0.049.

Molecule `Cc1cccc(C)c1NC(=O)CN1CCN(CCCC(c2ccc(F)cc2)c2ccc(F)cc2)CC1` [Lidoflazine] has a Ranking score [2] of 479.588 and a B-score functional assay of -0.817.

`CC(=O)NC[C@H]1CN(c2ccc(N3CCOCC3)c(F)c2)C(=O)O1` [Linezolid] gave a Ranking score [1] of 172.974 and a B-score functional assay of -1.549.

For `C[C@H](CCC(=O)O)[C@H]1CC[C@H]2[C@@H]3CC[C@@H]4C[C@H](O)CC[C@]4(C)[C@H]3CC[C@]12C` [Lithocholic acid], the Ranking score [1] was 22.4499 and the B-score functional assay was -6.112.

`N#Cc1cc(NC(=O)C(=O)O)c(Cl)c(NC(=O)C(=O)O)c1` [Lodoxamide] gave a Ranking score [2] of 609.015 and a B-score functional assay of -0.138.

With `CN(CCCN1c2ccccc2CCc2ccccc21)CC(=O)c1ccc(Cl)cc1` [Lofepramine] the Ranking score [2] was 479.183 and the B-score functional assay was 0.81.

Molecule `CC(Oc1c(Cl)cccc1Cl)C1=NCCN1` (stereo not shown) [Lofexidine] has a Ranking score [2] of 633.467 and a B-score functional assay of -0.33.

Molecule `N[C@@H](C(=O)N[C@@H]1C(=O)N2C(C(=O)O)=C(Cl)CC[C@H]12)c1ccccc1` [Loracarbef] has a Ranking score [2] of 611.882 and a B-score functional assay of -0.686.

`CCOC(=O)N1CCC(=C2c3ccc(Cl)cc3CCc3cccnc32)CC1` [Loratadine] gave a Ranking score [1] of 78.3326 and a B-score functional assay of -3.222.

`CCCCCN(CCCCC)C(=O)C(CCC(=O)[O-])NC(=O)c1ccc(Cl)c(Cl)c1.[Na+]` (stereo not shown) [Lorglumide sodium salt] showed a Ranking score [1] of 164.012 and a B-score functional assay of -3.59.

`CCOC(=O)O[C@]1(C(=O)OCCl)CC[C@H]2[C@@H]3CCC4=CC(=O)C=C[C@]4(C)[C@H]3[C@@H](O)C[C@@]21C` [Loteprednol etabonate] showed a Ranking score [1] of 211.225 and a B-score functional assay of -2.765.

In the case of `CC[C@H](C)C(=O)O[C@H]1C[C@@H](C)C=C2C=C[C@H](C)[C@H](CC[C@@H]3C[C@@H](O)CC(=O)O3)[C@H]21` [Lovastatin], the Ranking score [1] is reported as 175.818 and the B-score functional assay is reported as -0.084.

Molecule `O=c1cc(-c2ccc(O)c(O)c2)oc2cc(O)cc(O)c12` [Luteolin] has a Ranking score [2] of 585.624 and a B-score functional assay of -0.024.

Work on `CN(C)[C@@H]1C(O)=C(C(=O)NCNCCCC[C@H](N)C(=O)O)C(=O)[C@@]2(O)C(O)=C3C(=O)c4c(O)cccc4[C@@](C)(O)[C@H]3C[C@@H]12` [Lymecycline] yielded a Ranking score [2] of 591.633 and a B-score functional assay of 0.716.

Molecule `CCN(CCCCOC(=O)c1ccc(OC)c(OC)c1)C(C)Cc1ccc(OC)cc1` (stereo not shown) [Mebeverine hydrochloride] has a Ranking score [2] of 474.181 and a B-score functional assay of -0.512.

For `C=C1c2c(Cl)ccc(O)c2C(=O)C2=C(O)[C@]3(O)C(=O)C(C(N)=O)=C(O)[C@@H](N(C)C)[C@@H]3[C@@H](O)[C@H]12.O=C(O)c1cc(S(=O)(=O)O)ccc1O` [Meclocycline sulfosalicylate], the Ranking score [2] was 647.296 and the B-score functional assay was 0.486.

Work on `Cc1cccc(CN2CCN(C(c3ccccc3)c3ccc(Cl)cc3)CC2)c1.Cl.Cl` (stereo not shown) [Meclozine dihydrochloride] yielded a Ranking score [2] of 482.469 and a B-score functional assay of -1.455.

In the case of `Cc1cccc(Nc2ccccc2C(=O)O)c1C` [Mefenamic acid], the Ranking score [1] is reported as 180.289 and the B-score functional assay is reported as -1.919.

In the case of `CNC[C@H](O)[C@@H](O)[C@H](O)[C@H](O)CO` [Meglumine], the Ranking score [1] is reported as 72.6498 and the B-score functional assay is reported as -3.271.

In the case of `C[N+]1(C)CCCC(OC(=O)C(O)(c2ccccc2)c2ccccc2)C1` (stereo not shown) [Mepenzolate bromide], the Ranking score [2] is reported as 545.72 and the B-score functional assay is reported as 1.196.

`Cc1cccc(C)c1NC(=O)C1CCCCN1C` (stereo not shown) [Mepivacaine hydrochloride] was tested, and the Ranking score [1] was 206.427 and the B-score functional assay was -0.918.

With `CCC1(c2cccc(O)c2)CCCCN(C)C1` (stereo not shown) [Meptazinol hydrochloride] the Ranking score [2] was 474.66 and the B-score functional assay was -1.3.

`O=C([O-])c1ccccc1-c1c2cc(Br)c(=O)cc-2oc2[c]([Hg+])c([O-])c(Br)cc12.[Na+].[Na+].[OH-]` [Merbromin] showed a Ranking score [1] of 82.365 and a B-score functional assay of -0.374.

In the case of `O=S(=O)(O)CCS` [Mesna], the Ranking score [1] is reported as 127.75 and the B-score functional assay is reported as -1.329.

For `C[C@H](N)[C@H](O)c1cccc(O)c1` [Metaraminol bitartrate], the Ranking score [1] was 141.58 and the B-score functional assay was 0.952.

With `CN1C[C@H](CNC(=O)OCc2ccccc2)C[C@@H]2c3cccc4c3c(cn4C)C[C@H]21` [Metergoline] the Ranking score [1] was 269.388 and the B-score functional assay was -0.571.

For `CC(=O)OC(C)C[N+](C)(C)C` (stereo not shown) [Methacholine chloride], the Ranking score [2] was 628.097 and the B-score functional assay was 0.496.

`C=C1c2cccc(O)c2C(=O)C2=C(O)[C@]3(O)C(=O)C(C(N)=O)=C(O)[C@@H](N(C)C)[C@@H]3[C@@H](O)[C@H]12` [Methacycline hydrochloride] showed a Ranking score [1] of 244.434 and a B-score functional assay of 0.118.

For `CC[N+](C)(CC)CCOC(=O)C1c2ccccc2Oc2ccccc21` [Methantheline bromide], the Ranking score [2] was 536.517 and the B-score functional assay was -0.025.

`COC(=O)Nc1nc2ccc(SC(C)C)cc2[nH]1` [Methiazole] showed a Ranking score [1] of 275.739 and a B-score functional assay of -0.825.

Work on `COc1ccccc1OCC(O)COC(N)=O` (stereo not shown) [Methocarbamol] yielded a Ranking score [2] of 504.159 and a B-score functional assay of -0.493.

In the case of `COc1ccc(OC)c(C(O)C(C)N)c1` (stereo not shown) [Methoxamine hydrochloride], the Ranking score [2] is reported as 647.236 and the B-score functional assay is reported as -0.662.

`CN1CCCC(CC2c3ccccc3Sc3ccccc32)C1` (stereo not shown) [Metixene hydrochloride] gave a Ranking score [2] of 516.538 and a B-score functional assay of 0.08.

Molecule `CCN(CC)CCNC(=O)c1cc(Cl)c(N)cc1OC.Cl` [Metoclopramide monohydrochloride] has a Ranking score [2] of 1141.61 and a B-score functional assay (B-score) of 0.859.

`Cc1cccc(C)c1OCC(C)N` (stereo not shown) [Mexiletine hydrochloride] showed a Ranking score [2] of 487.63 and a B-score functional assay of -0.898.

Molecule `Clc1ccc(COC(Cn2ccnc2)c2ccc(Cl)cc2Cl)c(Cl)c1` (stereo not shown) [Miconazole] has a Ranking score [1] of 240.998 and a B-score functional assay of -2.763.

`CC#C[C@]1(O)CC[C@H]2[C@@H]3CCC4=CC(=O)CCC4=C3[C@@H](c3ccc(N(C)C)cc3)C[C@@]21C` [Mifepristone] showed a Ranking score [1] of 246.499 and a B-score functional assay of -2.267.

Work on `OCCN1C[C@H](O)[C@@H](O)[C@H](O)[C@H]1CO` [Miglitol] yielded a Ranking score [2] of 510.427 and a B-score functional assay of -1.145.

`Nc1cc(N2CCCCC2)nc(N)[n+]1[O-]` [Minoxidil] showed a Ranking score [1] of 87.241 and a B-score functional assay of -3.894.

For `CN1CCN2c3ncccc3Cc3ccccc3C2C1` (stereo not shown) [Mirtazapine], the Ranking score [2] was 576.426 and the B-score functional assay was 0.174.

For `NC(=O)C[S+]([O-])C(c1ccccc1)c1ccccc1` (stereo not shown) [Modafinil], the Ranking score [2] was 485.699 and the B-score functional assay was 2.253.

`CCOC(=O)[N-]c1cn(N2CCOCC2)n[o+]1` [Molsidomine] was tested, and the Ranking score [2] was 467.403 and the B-score functional assay was 0.63.

Molecule `C[C@@H]1C[C@H]2[C@@H]3CCC4=CC(=O)C=C[C@]4(C)[C@@]3(Cl)[C@@H](O)C[C@]2(C)[C@@]1(OC(=O)c1ccco1)C(=O)CCl` [Mometasone furoate] has a Ranking score [1] of 101.489 and a B-score functional assay of -0.4.
